The assay relates to AMPK. The assay can be described thus: AMPK phosphorylation (immunoblot anti-pAMPK T172) in C2C12 myotubes. The format is cell-based, mouse. As to conditions: C2C12 myotubes, peptide incubated 8 hours (FIG. 7). The procedure:
In particular: HBD1 SEQ ID NO: 73 (C18:0-HLGLEEPKK). The AMPK pathway is both insulin and IGF1 independent, but acts ultimately to induce GLUT4 translocation to the cell membrane to facilitate the uptake and metabolism of glucose.
For signaling studies the cells were prepared the same way except 6-well plates were used. After 6 days incubation in differentiating medium, the cells were washed with serum-free medium. The various treatments were then added in serum free medium containing 0.1% BSA. HBD1 peptides were added and incubated for 8 hours. When utilizing IGF-I, incubation was for 15 minutes after IGF-1 addition. Following incubation the cells were lysed in RIPA buffer and sonicated. The cell lysate was centrifuged and the supernatant analyzed for either Akt or AMPK by SDS PAGE using a 10% gel followed by immunoblotting with the appropriate antibody.
To examine further the intracellular transduction pathways utilized by the HBD1 peptides, following treatment with HBD1 peptide SEQ ID NO: 73 (C18:0-HLGLEEPKK), cell lysate proteins, were separated by SDS PAGE and immunoblotted with anti-pAMPK T172.

This is an account of results in patent US11192932B2, “Heparin-binding domain of IGFBP-2 in the treatment of metabolic disorders” (Amolyt Pharma, priority 2018, dated 2021).

Entries after “also recorded” stand apart in the source; their conditions may differ. No end group written: not given here. *: point of attachment. Stearoyl = CCCCCCCCCCCCCCCCCC(=O)*

As for “C18:0-HLGLEEPKK (Stearoyl-HLGLEEPKK) [SEQ ID NO: 73]”, the “phosphorylated AMPK (T172)” value was “dose-dependent increase in phosphorylated AMPK; also recorded: dose-dependent phosphorylation (activation) of the AMPK pathway”.
